Molecules are shown by their SMILES.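 Test compounds were applied to cells in 96-well plates for 48 hours at 5 doses. GI50 = concentration required for 50% inhibition of growth.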 Calls of active or inactive are those of the source. Rule as the data show it: active = GI50 up to about 1.1 µM and inactive = higher. Bounds are passed on as bounds.

We go through eleven molecules from ChEMBL document CHEMBL1201862, “PubChem BioAssay data set” (2004).

What all share (assay): growth of human tumour cells (NCI), 48 h
For test [1], the system named is ACHN.
Test [2] deals with 786-0.
Test [3] concerns EKVX.
Test [4] has as its system K562.
Test [5] deals with A498.
For test [6], the system named is SN12C.
For test [7], the system named is SF-268.
For test [8], the system named is HOP-62.
Test [9] relates to M14.
The test system of test [10] is SK-MEL-5.
Test [11] deals with RXF 393.
The subject of test [12] is M19-MEL.
Test [13] deals with SK-OV-3.
Test [14] deals with MOLT-4.
Test [15] concerns SW-620.
For test [16], the system named is NCI-H522.
Test [17] concerns SNB-75.
The test system of test [18] is NCI-H226.
Test [19] has as its system SR.
The test system of test [20] is MDA-N.

`Cn1c2c(c3ccccc31)CCN(CCN1CCN(c3cccc(Cl)c3)CC1)C2=O`: the GI50 in test [1] was > 100 µM (inactive); in test [2], > 100 µM (inactive); in test [3] it was > 100 µM (inactive); in [4] it was 35.3 µM (inactive); in [5] it was > 100 µM (inactive); in test [6] it was 32.1 µM (inactive). Also, the GI50 in test [7] is > 100 µM (inactive); in test [8] it was > 100 µM (inactive); in test [9] it was 46 µM (inactive); in test [10], 23.6 µM (inactive); in test [11] it was 67.1 µM (inactive); in [12] it was > 100 µM (inactive). For the same molecule, the GI50 was > 100 µM (inactive) in test [13], 43.8 µM (inactive) in test [14], 63.4 µM (inactive) in [15] and 47.5 µM (inactive) in test [16].
As to `COC(=O)c1nc(N)nc(O)c1CCCCCc1c(O)nc(N)nc1C(=O)OC`, the GI50 in test [1], in [2], in [3], in test [4], in [17] and in test [5] was > 50 µM (inactive) throughout. The GI50 in test [6], in [7], in [8], in test [9], in test [10] and in [11] was > 50 µM (inactive) each time. Also, the GI50 in test [12], in test [13], in test [15] and in [16] was > 50 µM (inactive) in each case.
`O=[N+]([O-])c1cccc(C(O)/C(=N/O)c2nc3ccc(Cl)cc3nc2O)c1` (centres undefined): the GI50 in test [1], in test [2], in test [3], in [4], in test [17] and in test [6] was > 100 µM (inactive) each time. Further, the GI50 in test [18], in test [8], in test [9], in [10], in [11] and in [12] was > 100 µM (inactive) each time. Further, the GI50 in test [13], in [14], in [15] and in test [16] was > 100 µM (inactive) each time.
For `C/C(CC(=O)Nc1cc(Cl)c(Cl)cc1Cl)=N\NS(=O)(=O)c1ccc(C)cc1`, the GI50 in [1] was 25.1 µM (inactive); in test [2], 41.9 µM (inactive); in [3], 35.3 µM (inactive); in test [4] it was 35.5 µM (inactive); in [17], 32.6 µM (inactive); in test [5] it was 53.6 µM (inactive). Moreover, the GI50 was 29.3 µM (inactive) in test [7]; 17.9 µM (inactive) in test [18]; 31.8 µM (inactive) in test [8]; 34.8 µM (inactive) in test [9]; 38.3 µM (inactive) in [10]; 24.9 µM (inactive) in test [11]. The GI50 in test [12] was 32.7 µM (inactive); in [13], 53.7 µM (inactive); in test [14], 29.5 µM (inactive); in test [15], 58.3 µM (inactive); in test [16], 17.6 µM (inactive).
For the molecule `CCn1c2ccccc2c2ccc3c(c21)C(=O)C=CC3=O`, the GI50 in test [1] was 16.5 µM (inactive); in [2] it was 1.89 µM (inactive); in test [3], 12.1 µM (inactive); in test [4], 2.29 µM (inactive); in test [17] it was 29.6 µM (inactive); in test [6] it was 18.2 µM (inactive). For the same molecule, the GI50 in [7] is 19.9 µM (inactive); in test [18], 18 µM (inactive); in test [8], 7.52 µM (inactive); in test [9], 3.93 µM (inactive); in test [10] it was < 0.01 µM (active); in test [12], 10.7 µM (inactive). The GI50 in test [13] is 18.6 µM (inactive); in [14], 2.07 µM (inactive); in test [16], 2.58 µM (inactive).
As for `COC(=O)C1OC(O[C@H]2CC[C@]3(C)[C@H]4CC=C5[C@@H]6CC(C)(C)CC[C@]6(C(=O)OC)[C@H](O)C[C@@]5(C)[C@]4(C)CC[C@H]3C2(C)C)C(O)C(O)C1O` (some centres undefined), the GI50 in test [1] was 11.5 µM (inactive); in test [2], 8.49 µM (inactive); in test [3], 7.96 µM (inactive); in [4], 2.8 µM (inactive); in test [19] it was 3.42 µM (inactive); in test [17], 14.8 µM (inactive). The GI50 is 12.6 µM (inactive) in test [5]; 12.9 µM (inactive) in test [6]; 13.2 µM (inactive) in test [7]; 15 µM (inactive) in test [18]; 17 µM (inactive) in test [8]; 5.22 µM (inactive) in [9]. The GI50 in [10] is 13.4 µM (inactive); in [11], 5.22 µM (inactive); in test [13] it was 15 µM (inactive); in test [14] it was 3.61 µM (inactive); in test [20], 12.2 µM (inactive); in test [15] it was 12.4 µM (inactive). For the same molecule, the GI50 in test [16] was 1.57 µM (inactive).
In the case of `CC(=O)c1c2c(cc3c1CC1(Cc4ccccc4C1=O)C3)CCC2` (centres undefined), the GI50 in test [1] was 21.7 µM (inactive); in [2], 22.3 µM (inactive); in test [3], 7.06 µM (inactive); in test [4] it was 16.3 µM (inactive); in test [19], 15.3 µM (inactive); in test [17], 32 µM (inactive). Besides, the GI50 in test [5] is 17.5 µM (inactive); in [6] it was 21.5 µM (inactive); in test [7], 37.9 µM (inactive); in [18] it was 22.9 µM (inactive); in test [8] it was 30.4 µM (inactive); in [9] it was 27.3 µM (inactive). Besides, the GI50 was 10.3 µM (inactive) in test [10]; 12 µM (inactive) in test [11]; 48.9 µM (inactive) in test [13]; 10.6 µM (inactive) in [14]; 28.6 µM (inactive) in test [20]; 32.3 µM (inactive) in [15]. In addition, the GI50 in test [16] is 25.5 µM (inactive).
As for `O=[N+]([O-])C(=C(N1CCCCC1)N1CCCCC1)/C(Cl)=C(\Cl)Br`, the GI50 in test [1] is 24.9 µM (inactive); in [2], 23.9 µM (inactive); in test [3], 16.4 µM (inactive); in test [4] it was 18.3 µM (inactive); in test [19], 5.93 µM (inactive); in [17], 16.6 µM (inactive). In addition, the GI50 in test [5] was 21.5 µM (inactive); in test [6] it was 29.7 µM (inactive); in test [7], 29.6 µM (inactive); in test [18], 20.8 µM (inactive); in test [8], 44.7 µM (inactive); in [9], 20.6 µM (inactive). Besides, the GI50 in test [10] is 21 µM (inactive); in test [11], 20.5 µM (inactive); in [13], 48.1 µM (inactive); in [14], 18.7 µM (inactive); in [20], 29.2 µM (inactive); in test [15], 15.6 µM (inactive). The GI50 in test [16] was 18.1 µM (inactive).
Turning to `O=C(/C=C/c1ccccc1)c1cc(Br)ccc1O`, the GI50 was 15.1 µM (inactive) in test [1]; 13.9 µM (inactive) in [2]; 13.8 µM (inactive) in [3]; 4.28 µM (inactive) in test [4]; 2.09 µM (inactive) in [19]; 15.4 µM (inactive) in test [17]. For the same molecule, the GI50 was 13.8 µM (inactive) in test [5]; 15.1 µM (inactive) in test [6]; 16.9 µM (inactive) in [7]; 12.9 µM (inactive) in test [18]; 20.1 µM (inactive) in test [8]; 24 µM (inactive) in [9]. Moreover, the GI50 is 15.3 µM (inactive) in test [10]; 18.8 µM (inactive) in test [11]; 20 µM (inactive) in test [13]; 15.2 µM (inactive) in test [14]; 15 µM (inactive) in [20]; 21 µM (inactive) in test [15]. In addition, in test [16], the GI50 was 12.5 µM (inactive).
With `O=C(NCCN1C(=O)CN=C(c2ccc(Cl)cc2)c2cc(Cl)ccc21)OCc1ccccc1`, the GI50 in test [1] is 16.3 µM (inactive); in test [2], 14.7 µM (inactive); in test [3] it was 20.7 µM (inactive); in test [4] it was 5.06 µM (inactive); in [19], 9.48 µM (inactive); in [17], 18.1 µM (inactive). Also, the GI50 was 11.2 µM (inactive) in test [5]; 14.3 µM (inactive) in test [6]; 12.4 µM (inactive) in test [7]; 15.6 µM (inactive) in test [18]; 19.8 µM (inactive) in [8]; 16.4 µM (inactive) in [9]. In addition, the GI50 in [10] is 15.2 µM (inactive); in test [11], 10.8 µM (inactive); in test [13], 52.2 µM (inactive); in test [14], 0.255 µM (active); in test [20], 16.5 µM (inactive); in test [15], 13.6 µM (inactive). Further, the GI50 in test [16] was 15.5 µM (inactive).
Turning to `O=C1C=C(Nc2nc(O)cc(C(=O)O)n2)c2ccccc2C1=O`, the GI50 in test [1], in test [2], in test [3], in [4], in test [19] and in test [17] was > 100 µM (inactive) each time. Also, the GI50 in [5], in [6], in [7], in [18], in [8] and in [9] was > 100 µM (inactive) each time. The GI50 in test [10], in test [11], in [13], in test [14], in [20] and in test [15] was > 100 µM (inactive) in each case. In addition, the GI50 in [16] is > 100 µM (inactive).
